This is an account of results in patent US12428397B2, “Factor XI activation inhibitors” (Merck Sharp & Dohme LLC, priority 2020, dated 2025).

In this assay the target is T1, Human coagulation factor (F)XI (Homo sapiens, UniProt P03951).
T1 construct: purchased Haematologic Technologies Inc. (FXI); Enzyme Research Laboratories (FXIIa) HCXI-150 (FXI); HFXIIa (FXIIa)
Nature of the assay: Inhibition of FXIIa mediated activation of FXI (activation of human Factor XI to XIa by human Factor α-XIIa). It counts as biochemical. To be noted: human FXI pre-incubated with compound 30 min at 22° C., activation by human FXIIa 60 min, z-GPR-AFC substrate fluorescence read-out, 4 parameter logistic fit; read-out: Inhibition of FXIIa meditated activation of FXI. Here is the method: Inhibition of FXIIa Mediated Activation of FXI
Activation of Human Factor XI to XIa by Human Factor α-XIIa
The assay was performed in 50 mM HEPES, 150 mM NaCl, 5 mM CaCl2, 0.1% PEG-8000, pH 7.4 buffer in black, flat-bottom, polystyrene microplates (Corning, Cat #3573). Serial dilutions (10-point, 3.333-fold) of the test compounds delivered as 10 mM DMSO stocks were prepared in the Labcyte Echo-qualified PP 384 well microplates (Labcyte, Cat #P-05525). Human coagulation factor (F)XI (Haematologic Technologies Inc., Cat #HCXI-150, concentration 46 nM, 19.5 uL) was pre-incubated with 0.5 uL of the test compounds for 30 min at 22° C. The activation was initiated by addition of 10 uL of human coagulation factor (F)XIIa (Enzyme Research Laboratories, Cat #HFXIIa, concentration 30 nM) and the reaction proceeded for 60 min at 22° C., after which it was quenched by addition of a selective inhibitor of FXIIa (Compound 54 in WO2018093695) concentration 600 uM in DMSO, 1 uL. 10 min after the quench, 29 uL of z-GPR-AFC substrate (Sigma, Cat #C0980-10MG, concentration 200 uM) was added into each well and the detection reaction proceeded for 60 min at 22° C. Fluorescence at 405/510 nm was measured in end-point mode using an Envision plate-reader (Perkin Elmer). IDBS Activity Base XE (ABase) analysis using 4 parameter logistic fit was performed to determine Minimum, Maximum, EC50, and Slope Factor for each compound.

T1 sequence (P03951 19-625): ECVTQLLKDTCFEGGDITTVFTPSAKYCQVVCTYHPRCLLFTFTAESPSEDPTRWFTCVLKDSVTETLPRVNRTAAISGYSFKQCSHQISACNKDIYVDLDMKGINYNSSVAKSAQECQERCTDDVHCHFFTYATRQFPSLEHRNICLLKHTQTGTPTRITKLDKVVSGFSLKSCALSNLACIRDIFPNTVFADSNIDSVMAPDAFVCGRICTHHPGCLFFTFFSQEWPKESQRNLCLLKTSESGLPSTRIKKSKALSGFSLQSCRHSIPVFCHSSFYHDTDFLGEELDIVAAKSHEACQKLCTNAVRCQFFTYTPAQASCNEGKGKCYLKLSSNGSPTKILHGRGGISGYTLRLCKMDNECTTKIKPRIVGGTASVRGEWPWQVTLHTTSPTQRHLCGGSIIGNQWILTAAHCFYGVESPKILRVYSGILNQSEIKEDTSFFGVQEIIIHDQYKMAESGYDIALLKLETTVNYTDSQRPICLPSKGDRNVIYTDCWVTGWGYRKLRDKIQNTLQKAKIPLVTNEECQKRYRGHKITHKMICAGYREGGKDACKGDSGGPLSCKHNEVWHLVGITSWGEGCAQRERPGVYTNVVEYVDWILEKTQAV

On to `O=C(c1cc(C(=O)N2CCCCC2)c2cc(OCc3nc4ccccc4s3)ncc2c1)N1CCC(n2cccn2)CC1` [Example 15, (4-(1H-pyrazol-1-yl)piperidin-1-yl)(3-(benzo[d]thiazol-2-ylmethoxy)-5-(piperidine-1-carbonyl)isoquinolin-7-yl)methanone], for which the EC50 came out at 19.9 nM.
For the compound `N#CC1(c2ccccc2)CCN(C(=O)c2cc(C(=O)N3CCCCC3)c3cc(OCc4nc5ccccc5s4)ncc3c2)CC1` [Example 1, 1-(3-(benzo[d]thiazol-2-ylmethoxy)-5-(piperidine-1-carbonyl)isoquinoline-7-carbonyl)-4-phenylpiperidine-4-carbonitrile], the EC50 came to 37.9 nM.
For `N#CC1(c2ccccc2)CCN(C(=O)c2cc(C(=O)N3CCCCC3)c3cc(OCc4ncc(C(F)(F)F)cc4Cl)ncc3c2)CC1` [Example 2, 1-(3-((3-chloro-5-(trifluoromethyl)pyridin-2-yl)methoxy)-5-(piperidine-1-carbonyl)isoquinoline-7-carbonyl)-4-phenylpiperidine-4-carbonitrile], the EC50 turned out to be 26.8 nM.
`N#Cc1ccc(COc2cc3c(C(=O)N4CCCCC4)cc(C(=O)N4CCC(n5cccn5)CC4)cc3cn2)cn1` [Example 9, 5-(((7-(4-(1H-pyrazol-1-yl)piperidine-l-carbonyl)-5-(piperidine-1-carbonyl)isoquinolin-3-yl)oxy)methyl)picolinonitrile]: the EC50 amounted to 45.7 nM.
Take `O=C(c1cc(C(=O)N2CCCCC2)c2cc(OCc3ncc(C(F)(F)F)cc3Cl)ncc2c1)N1CCC(n2ccnn2)CC1` [Example 3, (4-(1H-1,2,3-triazol-1-yl)piperidin-1-yl)(3-((3-chloro-5-(trifluoromethyl)pyridin-2-yl)methoxy)-5-(piperidine-1-carbonyl)isoquinolin-7-yl)methanone]: the EC50 worked out at 32.7 nM.
Next, `N#CC1(c2ccccc2)CCN(C(=O)c2cc(C(=O)N3CCCCC3)c3cc(OCCCc4cccnc4)ncc3c2)CC1` [Example 4, 4-phenyl-1-(5-(piperidine-1-carbonyl)-3-(3-(pyridin-3-yl)propoxy)isoquinoline-7-carbonyl)piperidine-4-carbonitrile]: 8.5 nM; `O=C(c1cc(C(=O)N2CCCCC2)c2cc(OCc3ccc(Cl)cc3Cl)ncc2c1)N1CCC(n2cccn2)CC1` [Example 13, (4-(1H-pyrazol-1-yl)piperidin-1-yl)(3-((2,4-dichlorobenzyl)oxy)-5-(piperidine-1-carbonyl)isoquinolin-7-yl)methanone]: 49.5 nM; `N#CC1(c2ccccn2)CCN(C(=O)c2cc(C(=O)N3CCCCC3)c3cc(OCc4ncc(C(F)(F)F)cc4Cl)ncc3c2)CC1` [Example 12, 1-(3-((3-chloro-5-(trifluoromethyl)pyridin-2-yl)methoxy)-5-(piperidine-1-carbonyl)isoquinoline-7-carbonyl)-4-(pyridin-2-yl)piperidine-4-carbonitrile]: 24.3 nM.
Regarding `N#Cc1cccc(COc2cc3c(C(=O)N4CCCCC4)cc(C(=O)N4CCC(C#N)(c5ccccc5)CC4)cc3cn2)c1` [Example 7, 1-(3-((3-cyanobenzyl)oxy)-5-(piperidine-1-carbonyl)isoquinoline-7-carbonyl)-4-phenylpiperidine-4-carbonitrile], the EC50 was 23.6 nM.
As for `O=C(c1cc(C(=O)N2CCCCC2)c2cc(OCc3ncc(Cl)cc3Cl)ncc2c1)N1CCC(n2cccn2)CC1` [Example 14, (4-(1H-pyrazol-1-yl)piperidin-1-yl)(3-((3,5-dichloropyridin-2-yl)methoxy)-5-(piperidine-1-carbonyl)isoquinolin-7-yl)methanone], the figure is 8.8 nM; as for `O=C(c1cc(C(=O)N2CCCCC2)c2cc(OCc3ncc(C(F)(F)F)cc3Cl)ncc2c1)N1CCC(n2cccn2)CC1` [Example 8, (4-(1H-pyrazol-1-yl)piperidin-1-yl)(3-((3-chloro-5-(trifluoromethyl)pyridin-2-yl)methoxy)-5-(piperidine-1-carbonyl)isoquinolin-7-yl)methanone], 13.4 nM; as for `O=C(c1cc(C(=O)N2CCCCC2)c2cc(OCc3ccc(C(F)(F)F)nc3)ncc2c1)N1CCC(n2cccn2)CC1` [Example 10, (4-(1H-pyrazol-1-yl)piperidin-1-yl)(5-(piperidine-1-carbonyl)-3-((6-(trifluoromethyl)pyridin-3-yl)methoxy)isoquinolin-7-yl)methanone], 33.2 nM.
Next, `N#CC1(c2ccccc2)CCN(C(=O)c2cc(C(=O)N3CCCCC3)c3cc(OCc4ncc(Cl)cc4Cl)ncc3c2)CC1` [Example 6, 1-(3-((3,5-dichloropyridin-2-yl)methoxy)-5-(piperidine-1-carbonyl)isoquinoline-7-carbonyl)-4-phenylpiperidine-4-carbonitrile]: 19.4 nM.
Regarding `O=C(c1cc(C(=O)N2CCCCC2)c2cc(OCc3ncc(Cl)cc3Cl)ncc2c1)N1CCC(n2ccnn2)CC1` [Example 5, (4-(1H-1,2,3-triazol-1-yl)piperidin-1-yl)(3-((3,5-dichloropyridin-2-yl)methoxy)-5-(piperidine-1-carbonyl)isoquinolin-7-yl)methanone], the EC50 turned out to be 41 nM.
For the compound `N#CC1(c2ccccn2)CCN(C(=O)c2cc(C(=O)N3CCCCC3)c3cc(OCc4ncc(Cl)cc4Cl)ncc3c2)CC1` [Example 11, 1-(3-((3,5-dichloropyridin-2-yl)methoxy)-5-(piperidine-1-carbonyl)isoquinoline-7-carbonyl)-4-(pyridin-2-yl)piperidine-4-carbonitrile], the EC50 stood at 4.3 nM.
